Experimental data reported in ChEMBL document CHEMBL5376018 (RSC Med Chem, 2024).

Experiments:
rhinovirus B14 = assay: Antiviral activity against Human rhinovirus 14 infected in human H1-HeLa cells incubated for 3 days measured by crystal violet staining based plaque counting analysis; conditions: Rhinovirus B, 72 h
H1-HeLa = assay: cells; conditions: Homo sapiens, 1 h
rhinovirus A16 = assay: Antiviral activity against Human rhinovirus 16 infected in human H1-HeLa cells incubated for 3 days measured by crystal violet staining based plaque counting analysis; conditions: Rhinovirus A, 72 h
[1] = Selectivity index, ratio of CC50 for cytotoxicity against human H1-HeLa cells infected with 1 MOI human rhinovirus 21 to EC50 for antiviral activity against Human rhinovirus 21 infected in human H1-HeLa cells; type: toxicity, cell-based; conditions: H1-HeLa cells infected with human rhinovirus 21, read-out: Ratio CC50/EC50
[2] = Selectivity index, ratio of CC50 for cytotoxicity against human H1-HeLa cells infected with 1 MOI human rhinovirus 16 to EC50 for antiviral activity against Human rhinovirus 16 infected in human H1-HeLa cells; type: toxicity, cell-based; conditions: H1-HeLa cells infected with human rhinovirus 16, read-out: Ratio CC50/EC50
[3] = Selectivity index, ratio of CC50 for cytotoxicity against human H1-HeLa cells infected with 1 MOI human rhinovirus 14 to EC50 for antiviral activity against Human rhinovirus 14 infected in human H1-HeLa cells; type: toxicity, cell-based; conditions: H1-HeLa cells infected with human rhinovirus 14, read-out: Ratio CC50/EC50
rhinovirus A21 = assay: Antiviral activity against Human rhinovirus A21 infected in human H1-HeLa cells incubated for 3 days measured by crystal violet staining based plaque counting analysis; conditions: Rhinovirus A, 72 h

Compound | EC50 (rhinovirus B14) [nM] | EC50 (rhinovirus A16) [nM] | EC50 (rhinovirus A21) [nM] | CC50 (H1-HeLa) [nM] | selectivity ratio [1] | selectivity ratio [2] | selectivity ratio [3]
COc1ccc(-c2sc(NC(=O)C(C)(C)C)nc2C)cc1S(=O)(=O)NCCNC(C)=O | 4400 | 3300 | 9100 | > 20000 | > 2 | > 6 | > 5
COc1ccc(-c2sc(NC(C)=O)nc2C)cc1S(=O)(=O)CCN1CCOCC1 | 1400 | 1300 | 3200 | > 20000 | > 6 | > 15 | > 14
COc1ccc(-c2sc(NC(=O)C(C)(C)C)nc2C)cc1S(=O)(=O)NCc1cccc(S(C)(=O)=O)c1 | 3800 | 2000 | 4500 | > 20000 | > 4 | > 10 | > 5
COc1ccc(-c2sc(NC(C)=O)nc2C)cc1 | 14500 | 12000 | 17700 | > 20000 | > 1 | > 2 | > 1

Now those with a lower EC50 (rhinovirus B14), led by results:

EC50 (rhinovirus B14) [nM] | EC50 (rhinovirus A16) [nM] | EC50 (rhinovirus A21) [nM] | Compound | CC50 (H1-HeLa) [nM] | selectivity ratio [1] | selectivity ratio [2] | selectivity ratio [3]
1300 | 790 | 1500 | COCCNS(=O)(=O)c1cc(-c2sc(NC(=O)C(C)(C)C)nc2C)ccc1OC | > 20000 | > 13 | > 25 | > 15
1300 | 1000 | 1700 | COc1ccc(-c2sc(NC(=O)C(C)(C)C)nc2C)cc1S(=O)(=O)CCc1ccncc1 | 12500 | > 7 | > 13 | > 10
1000 | 560 | 1800 | COc1ccc(-c2sc(NC(=O)C(C)(C)C)nc2C)cc1S(=O)(=O)NCCN1CCOCC1 | > 20000 | > 11 | > 36 | > 20
770 | 840 | 1600 | CC(=O)Nc1nc(C)c(-c2ccc(Cl)c(S(=O)(=O)NCCO)c2)s1 | 15800 | 10 | 19 | 21
58 | 80 | 95 | CCOC(=O)/C=C/[C@H](C[C@@H]1CCNC1=O)NC(=O)[C@@H](CC(=O)[C@@H](NC(=O)c1cc(C)on1)C(C)C)Cc1ccc(F)cc1 | > 100000 | – | – | –
